In patent US10512269B2, “Herbicidal compounds” (Syngenta Participations AG, priority 2015, dated 2019):

Tests used:
Experiment in all cases: B1 Post-emergence efficacy, glasshouse pot test
Type in all cases: in vivo
Conditions in all cases: post-emergence spray, evaluated after 13 days
[1] = test system: Echinochloa crus-galli (ECHCG)
Experimental: (§1) Seeds of a variety of test species are sown in standard soil in pots: —Solanum nigrum (SOLNI), Amaranthus retoflexus (AMARE), Setaria faberi (SETFA), Echinochloa crus-galli (ECHCG), Ipomoea hederacea (IPOHE), Lolium perenne (LOLPE). After 8 days cultivation (post-emergence) under controlled conditions in a glasshouse (at 24/16° C., day/night; 14 hours light; 65% humidity), the plants are sprayed with an aqueous spray solution derived from the formulation of the technical active ingredient in acetone/water (50:50) solution containing 0.5% Tween 20 (polyoxyethelyene sorbitan monolaurate, CAS RN 9005-64-5). Compounds are applied at 1000 g/ha and 250 g/ha. The test plants are then grown in a glasshouse under controlled conditions in a glasshouse (at 24/16° C., day/night; 14 hours light; 65% humidity) and watered twice daily. After 13 days, the test is evaluated for the percentage damage caused to the plant. The biological activities are assessed on a five point scale (5=80-100%; 4=60-79%; 3=40-59%; 2=20-39%; 1=0-19%). A blank value in the table is indicative that the compound was not tested on that species.

Setaria faberi (SETFA) = test system: Setaria faberi (SETFA)
Experimental: as §1

Solanum nigrum (SOLNI) = test system: Solanum nigrum (SOLNI)
Experimental: as §1

Lolium perenne (LOLPE) = test system: Lolium perenne (LOLPE)
Experimental: as §1

[2] = test system: Amaranthus retoflexus (AMARE)
Experimental: as §1

[3] = test system: Ipomoea hederacea (IPOHE)
Experimental: as §1

Structure (SMILES)	percentage damage caused to the plant, five point scale, ECHCG ([1]; 250 g/ha)	percentage damage caused to the plant, five point scale, ECHCG ([1]; 1000 g/ha)	percentage damage caused to the plant, five point scale, SETFA (Setaria faberi (SETFA); 250 g/ha)	percentage damage caused to the plant, five point scale, SETFA (Setaria faberi (SETFA); 1000 g/ha)	percentage damage caused to the plant, five point scale, SOLNI (Solanum nigrum (SOLNI); 250 g/ha)	percentage damage caused to the plant, five point scale, SOLNI (Solanum nigrum (SOLNI); 1000 g/ha)	percentage damage caused to the plant, five point scale, LOLPE (Lolium perenne (LOLPE); 250 g/ha)	percentage damage caused to the plant, five point scale, LOLPE (Lolium perenne (LOLPE); 1000 g/ha)	percentage damage caused to the plant, five point scale, AMARE ([2]; 250 g/ha)	percentage damage caused to the plant, five point scale, AMARE ([2]; 1000 g/ha)	percentage damage caused to the plant, five point scale, IPOHE ([3]; 250 g/ha)	percentage damage caused to the plant, five point scale, IPOHE ([3]; 1000 g/ha)
C#CCn1c(=O)c(-c2c(Cl)ccc(Cl)c2OCc2cnc(Cl)s2)c(O)c2scnc21 [Compound 1.19, 6-[3,6-dichloro-2-[(2-chlorothiazol-5-yl)methoxy]phenyl]-7-hydroxy-4-prop-2-ynyl-thiazolo[4,5-b]pyridin-5-one]	5 (5=80-100%)	5 (5=80-100%)	5 (5=80-100%)	5 (5=80-100%)	5 (5=80-100%)	5 (5=80-100%)	5 (5=80-100%)	5 (5=80-100%)	5 (5=80-100%)	5 (5=80-100%)	5 (5=80-100%)	5 (5=80-100%)
O=c1c(-c2c(Cl)ccc(Cl)c2OCc2cnc(Cl)s2)c(O)c2scnc2n1CC(F)F [Compound 3.19]	4 (4=60-79%)	5 (5=80-100%)	5 (5=80-100%)	5 (5=80-100%)	5 (5=80-100%)	5 (5=80-100%)	5 (5=80-100%)	5 (5=80-100%)	5 (5=80-100%)	5 (5=80-100%)	5 (5=80-100%)	5 (5=80-100%)
C#CCN1c2ncsc2C(O)=C(c2c(Cl)ccc(Cl)c2OCc2ccccc2)S1(=O)=O [Compound 5.22]	2 (2=20-39%)	2 (2=20-39%)	1 (1=0-19%)	2 (2=20-39%)	1 (1=0-19%)	1 (1=0-19%)	2 (2=20-39%)	2 (2=20-39%)	2 (2=20-39%)	1 (1=0-19%)	2 (2=20-39%)	2 (2=20-39%)
C#CCn1c(=O)c(-c2c(Cl)ccc(Cl)c2OCc2ccccc2)c(O)c2nsnc21 [Compound 9.22, 6-(2-benzyloxy-3,6-dichloro-phenyl)-7-hydroxy-4-prop-2-ynyl-[1,2,5]thiadiazolo[3,4-b]pyridin-5-one]	2 (2=20-39%)	3 (3=40-59%)	2 (2=20-39%)	5 (5=80-100%)	4 (4=60-79%)	5 (5=80-100%)	4 (4=60-79%)	5 (5=80-100%)	4 (4=60-79%)	5 (5=80-100%)	5 (5=80-100%)	5 (5=80-100%)
O=S1(=O)C(c2c(Cl)ccc(Cl)c2OCc2ccccc2)=C(O)c2scnc2N1CC(F)F [Compound 13.22]	1 (1=0-19%)	2 (2=20-39%)	1 (1=0-19%)	2 (2=20-39%)	3 (3=40-59%)	4 (4=60-79%)	2 (2=20-39%)	2 (2=20-39%)	3 (3=40-59%)	2 (2=20-39%)	4 (4=60-79%)	5 (5=80-100%)
C#CCn1c(=O)c(-c2c(F)ccc(Cl)c2OCc2ccccc2)c(O)c2csnc21 [Compound 15.22]	2 (2=20-39%)	3 (3=40-59%)	1 (1=0-19%)	3 (3=40-59%)	4 (4=60-79%)	5 (5=80-100%)	3 (3=40-59%)	4 (4=60-79%)	4 (4=60-79%)	5 (5=80-100%)	4 (4=60-79%)	3 (3=40-59%)
